Measurements published in publication PMC11106742, “Computational Design of Cyclic Peptide Inhibitors of a Bacterial Membrane Lipoprotein Peptidase” (ACS Chemical Biology, 2024).
In brackets after ≈: the same amount, converted by molar mass. Where two headings read alike, the source gives them in different places. Square brackets hold non-standard residues; d marks the D form. Peptide text beside a SMILES is read from it. Gly(N-dodecyl) = CCCCCCCCCCCCNCC(=O)O; aIle = CC[C@@H](C)[C@H](N)C(=O)O; aThr = C[C@H](O)[C@H](N)C(=O)O; NMeL = CN[C@@H](CC(C)C)C(=O)O; βAla = NCCC(=O)O

Assays:
PaLspA = biological target: T1, PaLspA (Pseudomonas aeruginosa, UniProt Q9HVM5); test: biochemical
T1 construct: made in house
T1 sequence (Q9HVM5 1-169): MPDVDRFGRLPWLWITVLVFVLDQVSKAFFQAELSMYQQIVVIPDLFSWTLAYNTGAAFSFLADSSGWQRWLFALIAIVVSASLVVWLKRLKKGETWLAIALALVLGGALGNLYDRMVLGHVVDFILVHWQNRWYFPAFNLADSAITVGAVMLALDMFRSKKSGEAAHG
Method: These analogues were tested for activity against PaLspA using an in vitro fluorescence resonance energy transfer (FRET) activity assay.[21] LspA inhibition was detected by a change in fluorescence upon cleavage of a FRET peptide substrate containing an N-terminal quencher moiety and a C-terminal fluorophore.
(A) Structures of G2a and G2d. (B) Results of the FRET dose–response assays. PaLspA concentration was 40 nM, FRET substrate concentration was 50 μM, and the concentration of inhibitors globomycin, G2a, and G2d ranged from 0–3,000 nM. (C) SDS-PAGE gels and quantitation of the PaLspA gel-shift dose–response assays. ppICP concentration was 12 μM, DOPG concentration was 600 μM, and Lgt concentration was 1.2 μM. The Lgt-catalyzed reaction was allowed to proceed for 60 min at 37 °C, after which inhibitors (0–1000 nM) were added. The PaLspA reaction was initiated by the addition of 100 nM enzyme. The LspA reaction was allowed to proceed for 30 min at 37 °C before being quenched with SDS-PAGE loading buffer (62.5 mM Tris/HCl pH 6.8, 2.5% (w/v) SDS, 0.002% (w/v) bromophenol blue, 0.5 M β-mercaptoethanol, 10% (v/v) glycerol). Quantitation of the gel-shift assays was performed using Image Lab, and data were plotted using GraphPad Prism.
Materials: All reagents were obtained from commercial sources and used without additional purification. All aqueous solutions were prepared using ultrapure laboratory grade water (deionized, filtered, and sterilized) obtained from an in-house ELGA water purification system. […]
Expression and purification of PaLspA, Lgt, EcLspA and ppICP: PaLspA, Lgt and pre-proICP (ppICP) were expressed and purified using previously published protocols (Vogely et al, 2016).[1] EcLspA was expressed and purified as described for PaLspA, with the following modification. The lysis buffer was 50 mM Hepes pH 7.5, 150 mM NaCl, 1 mM TCEP, 10 %(v/v) glycerol. Isolated membranes, containing EcLspA, were solubilized with 1 %(v/v) FC12 for 2 h at […]

E. coli ATCC25922 = test: microbe, parasite or virus in culture; format: cell-based, Escherichia coli
Method: (§1) MIC values were determined in cation-adjusted Mueller-Hinton broth using the broth microdilution method according to CLSI guidelines. Plates were incubated for 16 to 24 h at 37 °C.
(§2) Six biological replicates were performed across three different 2-fold dilution series, starting at concentration of 100 µg/ml, 80 µg/ml or 64 µg/ml. The lowest concentration of antimicrobial inhibiting growth was taken as the MIC. This was established by visual inspection of the medium after the incubation period with a lack of turbidity of the growth medium indicating no growth.[3] […]

P. aeruginosa 950 = test: microbe, parasite or virus in culture; format: cell-based, Pseudomonas aeruginosa
Method: as §1, §2

A. baumannii AB5075 = test: microbe, parasite or virus in culture; format: cell-based, Acinetobacter baumannii
Method: as §1, §2

A. baumannii AB17978 = test: microbe, parasite or virus in culture; format: cell-based, Acinetobacter baumannii
Method: as §1, §2

Compound	IC50 (PaLspA) [nM]	MIC (E. coli ATCC25922; ATCC25922) [µg/mL]	MIC (P. aeruginosa 950; 950) [µg/mL]	MIC (A. baumannii AB5075; AB5075) [µg/mL]	MIC (A. baumannii AB17978; AB17978) [µg/mL]	MIC (E. coli ATCC25922; Escherichia coli, E. coli ATCC25922, cation-adjusted Mueller-Hinton broth, 16 to 24 h, 37 °C, read-out: MIC) [µg/mL]	MIC (P. aeruginosa 950; Pseudomonas aeruginosa, P. aeruginosa 950, cation-adjusted Mueller-Hinton broth, 16 to 24 h, 37 °C, read-out: MIC) [µg/mL]	MIC (A. baumannii AB5075; Acinetobacter baumannii, A. baumannii AB5075, cation-adjusted Mueller-Hinton broth, 16 to 24 h, 37 °C, read-out: MIC) [µg/mL]	MIC (A. baumannii AB17978; Acinetobacter baumannii, A. baumannii AB17978, cation-adjusted Mueller-Hinton broth, 16 to 24 h, 37 °C, read-out: MIC) [µg/mL]
CCCCCCCCCCCCN1CC(=O)N(C)[C@@H](CC(C)C)C(=O)N[C@@H]([C@H](C)CC)C(=O)N[C@@H](CO)C(=O)N[C@@H]([C@H](C)O)C(=O)NCCC1=O [G2d] (cyclo([NMeL][aIle]S[aThr][βAla][Gly(N-dodecyl)]))	157 ± 25	32 (≈ 44.1 µM)	32 (≈ 44.1 µM)	16 (≈ 22.1 µM)	16 (≈ 22.1 µM)	–	–	–	–
CCCCCC[C@H]1OC(=O)CNC(=O)[C@H]([C@H](C)O)NC(=O)[C@H](CO)NC(=O)[C@H]([C@H](C)CC)NC(=O)[C@H](CC(C)C)N(C)C(=O)[C@@H]1C [globomycin, reference compound]	40	–	–	–	–	10 (≈ 15.2 µM)	16 (≈ 24.4 µM)	32 (≈ 48.8 µM)	16 (≈ 24.4 µM)
